In patent US20200002377A1, “COMPOUNDS USEFUL FOR THE TREATMENT AND/OR CARE OF THE SKIN, HAIR, NAILS AND/OR MUCOUS MEMBRANES” (LUBRIZOL ADVANCED MATERIALS, INC., priority 2016, published 2020):
Residues, ends and D or L forms follow the SMILES beside them. *: point of attachment. Palmitoyl = CCCCCCCCCCCCCCCC(=O)*; NHhexadecyl = CCCCCCCCCCCCCCCCN*; Myristoyl = CCCCCCCCCCCCCC(=O)*; NHHex = CCCCCCN*

Columns and labels:
[1] = system: Nuclear Factor Kappa B subunit 1 (NFKB1); test: Innate immune response gene expression in HEKa, real time PCR array; assay type: cell-based, human; details: 50 μg/ml, 24 h
Description: HEKa cells (Life Technologies) are seeded at 6.0×10^5 cells/well in 6-well plates and incubated in culture medium Epillfe™ with defined Growth Supplement (EDGS, Life Technologies), at 37° C. in a water-saturated atmosphere of 95% air and 5% CO2. After 24 hours of incubation under these conditions, medium is removed and cells are incubated with 50 μg/ml (w/v) of a peptide of the invention (see Table 16) in fresh culture medium keeping two wells where HEKa cells are incubated with medium only (basal conditions) at 37° C. and 5% CO2.
After 24 h of incubation, the cells are lysed directly in the wells following the protocol described on the RNeasy™ Mini kit (Qiagen) according to the manufacturer's protocol. The lysed cells are homogenized and the RNases are inactivated. The genomic DNA is removed from the samples by using gDNA Eliminator spin columns (Qiagen). Then the samples are passed through special RNA binding columns (Qiagen) and, after several microcentrifugation washes to eliminate contaminants and impurities, the purified RNA is eluted with 50 μl of ultrapure water. Quantification and analysis of purity of RNA samples are performed after RNA elution with a biophotometer (Eppendorf). 1 μg of high-quality RNA is retrotranscribed with iScript™ advanced (BioRad) in a final volume of 20 μl·Complete reaction mix is incubated in a thermal cycler (Eppendorf) at 42° C. for 30 minutes, and the reactions are stopped at 85° C. for 5 minutes. Complementary DNA is amplified by qPCR in a real-time PCR thermocycler (BioRad) using SYBR®Green supermix (BioRad) and a customized plate for use with SYBR®Green (BioRad). SYBR®Green binds to double-stranded DNA molecules and emits fluorescence which is quantified and is proportional to the amount of the product in the PCR reaction. Cycling conditions in BioRad CFX96™ instrument are 95° C. for 3 minutes, followed by 40 cycles of denaturing at 95° C. for 5 seconds, annealing and elongation at 60° C. for 30 seconds. GAPDH (Glyceraldehyde 3-phosphate dehydrogenase), TBP (TATA box binding protein) and HRPT1 (hypoxanthine phosphoribosyltransferase 1) are used as endogenous controls. Fold change relative to the expression of the sample genes and reference genes is calculated using normalized expression (ΔΔ(Ct)) method with default threshold values using CFX Manager Software (BioRad).
Genes analyzed are Chemokine (C-C motif) Ligand 5 (CCL5), Myeloid Differentiation primary response gene 88 (MyD88), Nuclear Factor Kappa B subunit 1 (NFKB1) and interferon Regulatory Factor 3 (IRF3).

[2] = system: Staphylococcus epidermidis; test: Adherence of Staphylococcus epidermidis in keratinocytes (HaCaT) in competition with S. aureus bioparticles; assay type: cell-based; details: 50 μg/ml, 24 h, basal = 0
Description: After that treatment, cells are washed with phosphate-buffered saline (PBS, Sigma) and are then incubated with a solution of Staphylococcus epidermidis (ATCC®12228™, Culture Collections) treated with green-fluorescence calcein AM (Life technologic) and Alexa Fluor 594™ Bioparticles Staphylococcus aureus (ThermoFisher) in PBS for 30 minutes at 37° C. and protected from light. At the end of the incubation period, cells are washed with PBS and fixed in 4% (v/v) paraformaldehyde (PFA, Sigma) for 30 minutes. After rinsing with PBS, the nuclei are stained with Hoechst 33342, trihydrochloride trihydrate (ThermoFisher) in PBS for 10 minutes before analysis.
Cellular imaging is performed by fluorescence microscopy using the Operetta® High Content Imaging System (PerkinElmer). From each fluorescence image, Staphylococcus epidermidis is quantified as a number of spots and normalized against the number of keratinocyte nuclei and the total bacteria number (understood as the addition of detected S. epidermidis spots and S. aureus bioparticles). Each value obtained is normalized respect to basal conditions (non-treated keratinocytes). An image is taken in three different fields per well. 12 representative images from each condition are analyzed with Harmony software (PerkinElmer).
The normalized percentage of Staphylococcus epidermidis respect to basal conditions in treated keratinocytes is represented in Table 17.

Row | Molecule | NFKB1 fold induction respect to basal conditions [1] | S. epidermidis (%), normalized percentage respect to basal conditions [2] [%]
1 | CCCCCCCCCCCCCCCC(=O)N[C@@H](CCC(=O)O)C(=O)N[C@@H](CCC(=O)O)C(=O)N[C@@H](CCSC)C(=O)N[C@@H](CCC(N)=O)C(=O)N[C@@H](CCCNC(=N)N)C(=O)N[C@@H](Cc1c[nH]cn1)C(N)=O [PEP-58, Palm-Glu-Glu-Met-Gln-Arg-His-NH2] (Palmitoyl-EEMQRH-NH2) | 1.87 | 
2 | Ac-EEMERRA-NH2 [PEP-39, Ac-Glu-Glu-Met-Glu-Arg-Arg-Ala-NH2] | 2.62 | 71.97
3 | Ac-EEMERR-NH2 [PEP-47, Ac-Glu-Glu-Met-Glu-Arg-Arg-NH2] | 2.12 | 2.91
4 | Ac-EEIERR-NH2 [PEP-55, Ac-Glu-Glu-Ile-Glu-Arg-Arg-NH2] | 3.39 | 2.41
5 | Ac-EEMQRRAE-OH [PEP-30, Ac-Glu-Glu-Met-Gln-Arg-Arg-Ala-Glu-OH] | 2.53 | 
6 | Ac-EEMQRRV-NH2 [PEP-44, Ac-Glu-Glu-Met-Gln-Arg-Arg-Val-NH2] | 1.24 | 
7 | Ac-EEMNRRAD-NH2 [PEP-12, Ac-Glu-Glu-Met-Asn-Arg-Arg-Ala-Asp-NH2] | 2.58 | 14.00
8 | Ac-EEMQRRAN-NH2 [PEP-18, Ac-Glu-Glu-Met-Gln-Arg-Arg-Ala-Asn-NH2] | 2.69 | 26.35
9 | CCCCCCNC(=O)[C@H](CC(=O)O)NC(=O)[C@H](C)NC(=O)[C@H](CCCNC(=N)N)NC(=O)[C@H](CCCNC(=N)N)NC(=O)[C@H](CCC(N)=O)NC(=O)[C@H](CCSC)NC(=O)[C@H](CCC(=O)O)NC(=O)[C@@H](N)CCC(=O)O [PEP-36, H-Glu-Glu-Met-Gln-Arg-Arg-Ala-Asp-NHC6H13] (H-EEMQRRAD-NHHex) | 2.53 | 29.93
10 | CCCCCCCCCCCCCCCC(=O)N[C@@H](CCC(=O)O)C(=O)N[C@@H](CCC(=O)O)C(=O)N[C@@H](CCSC)C(=O)N[C@@H](CCC(N)=O)C(=O)N[C@@H](CCCNC(=N)N)C(=O)N[C@@H](CCCNC(=N)N)C(=O)N[C@@H](C)C(=O)N[C@@H](CC(N)=O)C(N)=O [PEP-28, Palm-Glu-Glu-Met-Gln-Arg-Arg-Ala-Asn-NH2] (Palmitoyl-EEMQRRAN-NH2) | 2.65 | 39.68
11 | CCCCCCCCCCCCCCCC(=O)N[C@@H](CCC(=O)O)C(=O)N[C@@H](CCC(=O)O)C(=O)N[C@@H](CCSC)C(=O)N[C@@H](CCC(N)=O)C(=O)N[C@@H](CCCNC(=N)N)C(=O)N[C@@H](CCCNC(=N)N)C(=O)N[C@@H](C)C(=O)N[C@@H](CC(N)=O)C(=O)O [PEP-33, Palm-Glu-Glu-Met-Gln-Arg-Arg-Ala-Asn-OH] (Palmitoyl-EEMQRRAN-OH) | 2.63 | 58.74
12 | H-EEMQRRAE-NH2 [PEP-26, H-Glu-Glu-Met-Gln-Arg-Arg-Ala-Glu-NH2] | 2.55 | 18.10
13 | Ac-EEMQRH-NH2 [PEP-53, Ac-Glu-Glu-Met-Gln-Arg-His-NH2] | 3.37 | 
14 | CCCCCCCCCCCCCC(=O)N[C@@H](CCC(=O)O)C(=O)N[C@@H](CCC(=O)O)C(=O)N[C@@H](CCSC)C(=O)N[C@@H](CCC(N)=O)C(=O)N[C@@H](CCCNC(=N)N)C(=O)N[C@@H](CCCNC(=N)N)C(=O)N[C@@H](C)C(=O)N[C@@H](CCC(=O)O)C(N)=O [PEP-29, Myr-Glu-Glu-Met-Gln-Arg-Arg-Ala-Glu-NH2] (Myristoyl-EEMQRRAE-NH2) | 2.72 | 33.02
15 | Ac-EELQRR-OH [PEP-63, Ac-Glu-Glu-Leu-Gln-Arg-Arg-OH] | 1.50 | 
16 | CCCCCCNC(=O)[C@H](CCCNC(=N)N)NC(=O)[C@H](CCCNC(=N)N)NC(=O)[C@H](CCC(N)=O)NC(=O)[C@H](CCSC)NC(=O)[C@H](CCC(=O)O)NC(=O)[C@@H](N)CCC(=O)O [PEP-65, H-Glu-Glu-Met-Gln-Arg-Arg-NCH6H13] (H-EEMQRR-NHHex) | 2.41 | 
17 | Ac-EEMQRRAE-NH2 [PEP-17, Ac-Glu-Glu-Met-Gln-Arg-Arg-Ala-Glu-NH2] | 2.32 | 11.33
18 | Ac-EEMQRRPD-NH2 [PEP-22, Ac-Glu-Glu-Met-Gln-Arg-Arg-Pro-Asp-NH2] | 2.69 | 81.90

Row | Molecule | NFKB1 fold induction respect to basal conditions [1] | S. epidermidis (%), normalized percentage respect to basal conditions [2] [%]
19 | Ac-EELQRRAD-NH2 [PEP-10, Ac-Glu-Glu-Leu-Gln-Arg-Arg-Ala-Asp-NH2] | 2.46 | 11.54
20 | Ac-EEMQRRAD-OH [PEP-4, Ac-Glu-Glu-Met-Gln-Arg-Arg-Ala-Asp-OH] | 2.55 | 25.36
21 | Ac-EEMQKK-NH2 [PEP-54, Ac-Glu-Glu-Met-Gln-Lys-Lys-NH2] | 2.15 | 10.91
22 | Ac-EEMERRAD-OH [PEP-31, Ac-Glu-Glu-Met-Glu-Arg-Arg-Ala-Asp-OH] | 2.24 | 29.41
23 | Ac-DEMQRR-NH2 [PEP-51, Ac-Asp-Glu-Met-Gln-Arg-Arg-NH2] | 2.41 | 65.15
24 | Ac-EEMQRRKD-NH2 [PEP-24, Ac-Glu-Glu-Met-Gln-Arg-Arg-Lys-Asp-NH2] | 2.46 | 10.41
25 | Ac-EEMQRRSD-NH2 [PEP-15, Ac-Glu-Glu-Met-Gln-Arg-Arg-Ser-Asp-NH2] | 2.57 | 15.10
26 | CCCCCCCCCCCCCC(=O)N[C@@H](CCC(=O)O)C(=O)N[C@@H](CCC(=O)O)C(=O)N[C@@H](CCSC)C(=O)N[C@@H](CCC(N)=O)C(=O)N[C@@H](CCCNC(=N)N)C(=O)N[C@@H](CCCCN)C(N)=O [PEP-60, Myr-Glu-Glu-Met-Gln-Arg-Lys-NH2] (Myristoyl-EEMQRK-NH2) | 1.26 | 24.84
27 | Ac-EEMQRRS-NH2 [PEP-37, Ac-Glu-Glu-Met-Gln-Arg-Arg-Ser-NH2] | 2.88 | 7.49
28 | Ac-EEMQRK-OH [PEP-62, Ac-Glu-Glu-Met-Gln-Arg-Lys-OH] | 1.40 | 6.78
29 | Ac-DEMQRRAD-NH2 [PEP-8, Ac-Asp-Glu-Met-Gln-Arg-Arg-Ala-Asp-NH2] | 2.04 | 20.45
30 | Ac-EDMQRR-NH2 [PEP-49, Ac-Glu-Asp-Met-Gln-Arg-Arg-NH2] | 1.55 | 5.86
31 | Ac-QEMQRR-NH2 [PEP-52, Ac-Gln-Glu-Met-Gln-Arg-Arg-NH2] | 2.57 | 
32 | Ac-EEMQRRGD-NH2 [PEP-16, Ac-Glu-Glu-Met-Gln-Arg-Arg-Gly-Asp-NH2] | 2.47 | 51.11
33 | H-EEMQRRAN-NH2 [PEP-25, H-Glu-Glu-Met-Gln-Arg-Arg-Ala-Asn-NH2] | 2.31 | 
34 | Ac-Glu-Glu-Leu-Gln-Arg-Arg-NH2 (Ac-EELQRR-NH2) [PEP-66] |  | 45.38
35 | H-Glu-Glu-Met-Gln-Arg-Arg-NHC16H33 (H-EEMQRR-NHhexadecyl) [PEP-67] |  | 14.91
36 | CCCCCCNC(=O)[C@H](CCCNC(=N)N)NC(=O)[C@H](CCCNC(=N)N)NC(=O)[C@H](CCC(N)=O)NC(=O)[C@H](CCSC)NC(=O)[C@H](CCC(=O)O)NC(=O)[C@H](CCC(=O)O)NC(C)=O [PEP-64, Ac-Glu-Glu-Met-Gln-Arg-Arg-NHC6H13] (Ac-EEMQRR-NHHex) | 1.75 | 
